Source: patent US10336710B2, “Benzimidazole derivatives, preparation method therefor, and applications thereof” (BEIJING PHARMACEUTICAL GROUP CO., LTD., priority 2015, dated 2019)
pIC50: −log10 of the molar value.

How the values were obtained:
human URAT1 = human URAT1 (Homo sapiens (Human), UniProt Q96S37); test: 14C-uric acid uptake inhibition in URAT1 high-expression 293/hURAT1 cells; type: cell-based; settings: 50 μM 14C-uric acid, 5 minutes at 37° C., read-out: URAT1 IC50 activity classification
human URAT1, sequence (Q96S37 whole entry): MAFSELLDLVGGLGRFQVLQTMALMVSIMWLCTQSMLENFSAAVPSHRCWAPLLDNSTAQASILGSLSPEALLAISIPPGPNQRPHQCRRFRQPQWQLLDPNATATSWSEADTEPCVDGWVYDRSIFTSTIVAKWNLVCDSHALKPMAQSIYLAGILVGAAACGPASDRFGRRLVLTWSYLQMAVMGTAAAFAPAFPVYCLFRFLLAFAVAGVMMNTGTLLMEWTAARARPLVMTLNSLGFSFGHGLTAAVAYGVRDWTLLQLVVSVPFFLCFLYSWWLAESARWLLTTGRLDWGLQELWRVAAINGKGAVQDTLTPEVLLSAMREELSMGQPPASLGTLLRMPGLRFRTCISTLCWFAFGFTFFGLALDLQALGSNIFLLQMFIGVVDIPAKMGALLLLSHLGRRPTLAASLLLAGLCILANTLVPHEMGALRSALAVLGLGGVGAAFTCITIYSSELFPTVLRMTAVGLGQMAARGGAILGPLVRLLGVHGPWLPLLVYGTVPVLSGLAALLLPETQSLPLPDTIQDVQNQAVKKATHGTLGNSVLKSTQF
Description: The transfected cells were assayed for ability to uptake uric acid labelled with radioisotope. The test compounds were then evaluated for their activity by determining of their ability to block uric acid uptake by the transfected cells.
293/h URAT1 cells were plated at a density of 40000 cells/well in poly D-lysine-coated 96-well plates (BD, 356461) and incubated overnight. The medium was removed and a pre-warmed reaction buffer was added (125 mM sodium gluconate, 4.8 mM potassium gluconate, 1.3 mM calcium gluconate, 1.2 mM potassium dihydrogen phosphate, 1.2 mM magnesium sulfate, 5.6 mM glucose, 25 mM HEPES, pH 7.4) before incubating at 37° C. for 10 minutes. The buffer was removed and another reaction buffer containing 50 μM ^14C-uric acid (American Radiolabeled Chemicals, ARC0513) and the test compounds or solvent control was added before incubating at 37° C. for 5 minutes. The buffer was removed, and the plates were washed 3 times with the buffer. Cells were lysed by adding 100 mM NaOH for 20 minutes. Cell lysates were transferred to Isoplate-96 well plates (PerkinElmer, 6005040), mixed with liquid scintillators and were counted in a MicroBeta^2 (PerkinElmer) counter.
The test compounds were all dissolved in DMSO, and DMSO of the same concentration without the test compounds was used as a solvent control. […] The IC50 of each compound was calculated using the percentage of inhibition at different concentrations.

hyperuricemia rat models = test: Therapeutic effect on potassium oxonate-induced hyperuricemia rat models (blood uric acid); type: in vivo, SD rats; settings: for Blood uric acid concentration before drug administration: baseline, rat serum; for Blood uric acid concentration before drug administration / Blood uric acid concentration 7 days after drug administration: mean ± SD; for Blood uric acid concentration 7 days after drug administration: potassium oxonate 250 mg/kg/d i.p.; for Blood uric acid increase: 7 days vs before drug administration; for Effect on increment of blood uric acid levels compared with model control group (in words): 80 mg/kg/day and 40 mg/kg/day, potassium oxonate rat model
Description: Experimental animals: SD rats (SPF level), Laboratory Animal Center, Chinese Academy of Military Medical Sciences.
Rats weighing 200±20 g were fasted for 12 hours after a 1-week adaptive feeding period and were intraperitoneally injected with potassium oxonate (250 mg/kg/d) once daily for 7 consecutive days for modeling. The rats were closely observed after injection. […]
Blood samples were collected from the retro-orbital venous plexus before the preparation of the rat models and after administering the test compounds for 7 days. Serum was separated from the blood samples. Urine was collected using a metabolic cage for 24 hours and the supernatant was collected after centrifuge. Blood uric acid levels were measured using an automatic biochemical analyzer. The average increment in blood uric acid concentration was calculated for each group of animals.
SPSS 13.0 statistical software package was used to analyze the data. The data in each group were expressed as mean plus or minus standard deviation (x±s). The data were compared using a comparative t-test between groups, where p<0.05 was considered as statistically significant.

[1] = 40 mg/kg/d intragastric once daily for 7 days
[2] = 80 mg/kg/d intragastric once daily for 7 days

With `CC(C)(Sc1nc2ccccc2n1-c1ccc(C#N)c2ccccc12)C(=O)O` [Example I2, 2-methyl-2-[[1-(4-cyanonaphth-1-yl)-1H-benzo[d]imidazol-2-yl]thio]propanoic acid] the pIC50 (human URAT1) was 4.82 to 6.00, the “Blood uric acid concentration before drug administration” value (hyperuricemia rat models; 40 mg/kg/d group) was 156.38 ± 12.62 µmol/L and the “Blood uric acid concentration 7 days after drug administration” value (“Blood uric acid concentration 7 days” for short) (hyperuricemia rat models; [1]) was 172.86 ± 9.37 µmol/L. The “Blood uric acid increase” value (hyperuricemia rat models; 40 mg/kg/d) was 10.54%, the “Blood uric acid concentration before drug administration” value (hyperuricemia rat models; 80 mg/kg/d group) was 150.86 ± 20.46 µmol/L and the “Blood uric acid concentration 7 days” value (hyperuricemia rat models; [2]) was 161.81 ± 8.38 µmol/L. The “Blood uric acid increase” value (hyperuricemia rat models; 80 mg/kg/d) was 7.26% and the “Effect on increment of blood uric acid levels compared with model control group (in words)” value (hyperuricemia rat models) was “could significantly reduce the increment of blood uric acid levels”.
`CC(C)(Sc1nc2ccccc2n1-c1ccc(C#N)cc1)C(=O)O` [Example I4, 2-methyl-2-[[1-(4-cyanophenyl)-1H-benzo[d]imidazol-2-yl]thio]propanoic acid] was tested, and the pIC50 (human URAT1) was 4.82 to 6.00, the “Blood uric acid concentration before drug administration” value (hyperuricemia rat models; 40 mg/kg/d group) was 142.57 ± 6.43 µmol/L and the “Blood uric acid concentration 7 days” value (hyperuricemia rat models; [1]) was 173.05 ± 17.24 µmol/L. The “Blood uric acid increase” value (hyperuricemia rat models; 40 mg/kg/d) was 21.38%, the “Blood uric acid concentration before drug administration” value (hyperuricemia rat models; 80 mg/kg/d group) was 158.38 ± 13.67 µmol/L and the “Blood uric acid concentration 7 days” value (hyperuricemia rat models; [2]) was 177.24 ± 5.77 µmol/L. The “Blood uric acid increase” value (hyperuricemia rat models; 80 mg/kg/d) was 11.90%.
`O=C(O)CSc1nnc(Br)n1-c1ccc(C2CC2)c2ccccc12` [Lesinurad, reference compound] was tested, and the “Blood uric acid concentration before drug administration” value (hyperuricemia rat models; 40 mg/kg/d group) was 156.02 ± 8.69 µmol/L, the “Blood uric acid concentration 7 days” value (hyperuricemia rat models; [1]) was 172.57 ± 25.43 µmol/L and the “Blood uric acid increase” value (hyperuricemia rat models; 40 mg/kg/d) was 10.61%. For the same compound, the “Blood uric acid concentration before drug administration” value (hyperuricemia rat models; 80 mg/kg/d group) was 161.20 ± 22.07 µmol/L, the “Blood uric acid concentration 7 days” value (hyperuricemia rat models; [2]) was 166.85 ± 12.76 µmol/L and the “Blood uric acid increase” value (hyperuricemia rat models; 80 mg/kg/d) was 3.50%. For the same compound, the “Effect on increment of blood uric acid levels compared with model control group (in words)” value (hyperuricemia rat models) was “could reduce the increment of blood uric acid levels”.
`COc1ccc2c(c1)nc(SC(C)(C)C(=O)O)n2-c1ccc(C#N)c2ccccc12` [Example I1, 2-methyl-2-[[5-methoxy-1-(4-cyanonaphth-1-yl)-1H-benzo[d]imidazol-2-yl]thio]propanoic acid] was tested, and the pIC50 (human URAT1) was 4.82 to 6.00, the “Blood uric acid concentration before drug administration” value (hyperuricemia rat models; 40 mg/kg/d group) was 169.61 ± 19.57 µmol/L and the “Blood uric acid concentration 7 days” value (hyperuricemia rat models; [1]) was 175.79 ± 16.54 µmol/L. For the same compound, the “Blood uric acid increase” value (hyperuricemia rat models; 40 mg/kg/d) was 3.64%, the “Blood uric acid concentration before drug administration” value (hyperuricemia rat models; 80 mg/kg/d group) was 175.83 ± 16.39 µmol/L and the “Blood uric acid concentration 7 days” value (hyperuricemia rat models; [2]) was 175.95 ± 15.43 µmol/L. The “Blood uric acid increase” value (hyperuricemia rat models; 80 mg/kg/d) was 0.07% and the “Effect on increment of blood uric acid levels compared with model control group (in words)” value (hyperuricemia rat models) was “could significantly reduce the increment of blood uric acid levels”.
For `CC(C)(Sc1nc2cc(Br)ccc2n1-c1ccc(C#N)c2ccccc12)C(=O)O` [Example I3, 2-methyl-2-[[5-bromo-1-(4-cyanonaphth-1-yl)-1H-benzo[d]imidazol-2-yl]thio]propanoic acid], the pIC50 (human URAT1) was 4.82 to 6.00, the “Blood uric acid concentration before drug administration” value (hyperuricemia rat models; 40 mg/kg/d group) was 169.21 ± 14.24 µmol/L and the “Blood uric acid concentration 7 days” value (hyperuricemia rat models; [1]) was 180.38 ± 14.36 µmol/L. The “Blood uric acid increase” value (hyperuricemia rat models; 40 mg/kg/d) was 6.60%, the “Blood uric acid concentration before drug administration” value (hyperuricemia rat models; 80 mg/kg/d group) was 181.25 ± 24.86 µmol/L and the “Blood uric acid concentration 7 days” value (hyperuricemia rat models; [2]) was 159.40 ± 13.99 µmol/L. The “Blood uric acid increase” value (hyperuricemia rat models; 80 mg/kg/d) was −12.06% and the “Effect on increment of blood uric acid levels compared with model control group (in words)” value (hyperuricemia rat models) was “could significantly reduce the increment of blood uric acid levels”.
With `CC(C)(Sc1nc2ccccc2n1-c1ccccc1)C(=O)O` [Example I8, 2-methyl-2-[(1-phenyl-1H-benzo[d]imidazol-2-yl)thio]propanoic acid] the pIC50 (human URAT1) was 4.00 to 4.52.
Compound `CC(C)(Sc1nc2ccccc2n1-c1ccccc1F)C(=O)O` [Example I13, 2-methyl-2-[[1-(2-fluorophenyl)-1H-benzo[d]imidazol-2-yl]thio]propanoic acid] has a pIC50 (human URAT1) of 4.52 to 4.82.
Work on `CC(C)(Sc1nc2ccccc2n1-c1ccc([N+](=O)[O-])cc1F)C(=O)O` [Example I7, 2-methyl-2-[[1-(4-nitro-2-fluorophenyl)-1H-benzo[d]imidazol-2-yl]thio]propanoic acid] yielded a pIC50 (human URAT1) of 4.00 to 4.52.
`CC(C)(Sc1nc2ccccc2n1-c1ccc(Br)cc1F)C(=O)O` [Example I11, 2-methyl-2-[[1-(4-bromo-2-fluorophenyl)-1H-benzo[d]imidazol-2-yl]thio]propanoic acid] showed a pIC50 (human URAT1) of 4.52 to 4.82.
`CC(C)(Sc1nc2ccccc2n1-c1ccc(C2CC2)c2ccccc12)C(=O)O` [Example I5, 2-methyl-2-[[1-(4-cyclopropylnaphth-1-yl)-1H-benzo[d]imidazol-2-yl]thio]propanoic acid] showed a pIC50 (human URAT1) of 4.52 to 4.82.
In the case of `CC(C)(Sc1nc2ccccc2n1-c1ccc(Cl)cc1F)C(=O)O` [Example I12, 2-methyl-2-[[1-(4-chloro-2-fluorophenyl)-1H-benzo[d]imidazol-2-yl]thio]propanoic acid], the pIC50 (human URAT1) was 4.52 to 4.82.
`O=C(O)C(Sc1nc2ccccc2n1-c1ccc(C2CC2)c2ccccc12)c1ccc(Cl)cc1` (stereo not drawn) [Example I6, 2-(4-chlorophenyl)-2-[[1-(4-cyclopropylnaphth-1-yl)-1H-benzo[d]imidazol-2-yl]thio]acetic acid] was tested, and the pIC50 (human URAT1) was 4.52 to 4.82.
